Patent publication US4311699A, “Aminoacid derivatives of cephalosporin compounds” (priority 1980, dated 1982)
In brackets after ≈: the same amount, converted by molar mass.

Assays:
Assay in all cases: in vitro antibacterial activity, minimal inhibitory concentration
Format in all cases: cell-based
E. coli Brig = details: for MIC: Escherichia coli
Source text: (§1) The compounds of the invention are new chemical compounds that are used as pharmacological agents and especially as broad spectrum antibacterial agents. They are active in vitro against strains of both gram-positive and gram-negative bacteria.
(§2) Minimal Inhibitory Concentration (μg/ml)

E. coli Vogel = details: for MIC: Escherichia coli
Source text: as §1, §2

Entero. cloacae = details: for MIC: Enterobacter cloacae
Source text: as §1, §2

Klebs. pneu. = tested on: Klebs. pneu.
Source text: as §1, §2

Prot. vulg. = tested on: Prot. vulg.
Source text: as §1, §2

Pseudomonas #28 = details: Pseudomonas #28, in vitro; for MIC: read-out: Minimal Inhibitory Concentration
Source text: as §1, §2

Pseudomonas BRK 12-4-4 = details: Pseudomonas BRK 12-4-4, in vitro; for MIC: BRK1244
Source text: as §1, §2

Pseudomonas UI 18 = details: Pseudomonas UI 18, in vitro; for MIC: UI18
Source text: as §1, §2

Serr. marces. = tested on: Serr. marces.
Source text: as §1, §2

Staph. aureus S18733 = details: for MIC: Staphylococcus aureus
Source text: as §1, §2

Staph. aureus UC-76 = details: Staph. aureus UC-76, in vitro; for MIC: Staphylococcus aureus, UC76
Source text: as §1, §2

Strep. fec. = tested on: Strep. fec.
Source text: as §1, §2

| Structure (SMILES) | MIC (E. coli Brig) | MIC (E. coli Vogel) | MIC (Entero. cloacae) | MIC (Klebs. pneu.) | MIC (Prot. vulg.) | MIC (Pseudomonas #28) | MIC (Pseudomonas BRK 12-4-4) | MIC (Pseudomonas UI 18) | MIC (Serr. marces.) | MIC (Staph. aureus S18733) | MIC (Staph. aureus UC-76) | MIC (Strep. fec.) | also measured |
| --- | --- | --- | --- | --- | --- | --- | --- | --- | --- | --- | --- | --- | --- |
| CC(=O)NC(C)C(=O)Nc1ccc(-c2ncc(C(=O)N[C@@H](C(=O)NC3C(=O)N4C(C(=O)O)=C(CSc5nnc(C)s5)CSC34)c3ccccc3)c(O)n2)cc1 (mixture of isomers) [Example 40, N-[2-[4-(N-Acetyl-DL-alanylamino)phenyl]-4-hydroxy-5-pyrimidinylcarbonyl]-7-[D-2-amino-2-phenylacetamido]-3-[[(5-methyl-1,3,4-thiadiazoyl-2-thio]methyl]-3-cephem-4-carboxylic acid] | 12.5 µg/mL | 3.1 µg/mL | 25 µg/mL | 3.1 µg/mL | 50 µg/mL | 12.5 µg/mL | 12.5 µg/mL | 6.3 µg/mL | 50 µg/mL | 3.1 µg/mL | 0.4 µg/mL | 25 µg/mL | – |
| CC(=O)OCC1=C(C(=O)O)N2C(=O)C(NC(=O)[C@H](NC(=O)c3cnc(-c4ccc(NC(=O)[C@@H]5C[C@@H](O)CN5C(C)=O)cc4)nc3O)c3ccccc3)[C@H]2SC1 (stereo partly drawn) [Example 15, N-[2-[4-(N-Acetyl-L-hydroxyprolylamino)phenyl]-4-hydroxy-5-pyrimidinylcarbonyl]-7-[D-2-amino-2-phenylacetamido]-3-acetoxymethyl-3-cephem-4-carboxylic acid] | – | – | – | – | – | – | – | – | – | – | – | – | Minimal Inhibitory Concentration (E. coli Brig): 50 µg/mL; Minimal Inhibitory Concentration (E. coli Vogel): 6.3 µg/mL; Minimal Inhibitory Concentration (Entero. cloacae): > 50 µg/mL; Minimal Inhibitory Concentration (Klebs. pneu.): 12.5 µg/mL; Minimal Inhibitory Concentration (Prot. vulg.): 50 µg/mL; Minimal Inhibitory Concentration (Pseudomonas #28): 3.1 µg/mL; Minimal Inhibitory Concentration (Pseudomonas BRK 12-4-4): 12.5 µg/mL; Minimal Inhibitory Concentration (Pseudomonas UI 18): 3.1 µg/mL; Minimal Inhibitory Concentration (Serr. marces.): > 50 µg/mL; Minimal Inhibitory Concentration (Staph. aureus S18733): 6.3 µg/mL; Minimal Inhibitory Concentration (Staph. aureus UC-76): 1.6 µg/mL; Minimal Inhibitory Concentration (Strep. fec.): 25 µg/mL |
| CC(=O)N[C@H](C)C(=O)Nc1ccc(-c2ncc(C(=O)N[C@@H](C(=O)NC3C(=O)N4C(C(=O)O)=C(CSc5nnnn5CC(=O)O)CSC34)c3ccccc3)c(O)n2)cc1 (stereo partly drawn) [Example 34, N-[2-[4-(N-Acetyl-D-alanylamino)phenyl]-4-hydroxy-5-pyrimidinylcarbonyl]-7-[D-2-amino-2-phenylacetamido]-3-[[(1-carboxymethyl-1H-tetrazol-5-yl)thio]methyl]-3-cephem-4-carboxylic acid] | 12.5 µg/mL (≈ 15 µM) | 3.1 µg/mL (≈ 3.73 µM) | 12.5 µg/mL (≈ 15 µM) | 6.3 µg/mL (≈ 7.57 µM) | 1.6 µg/mL (≈ 1.92 µM) | 12.5 µg/mL (≈ 15 µM) | 12.5 µg/mL (≈ 15 µM) | 12.5 µg/mL (≈ 15 µM) | > 50 µg/mL | 25 µg/mL (≈ 30.1 µM) | 12.5 µg/mL (≈ 15 µM) | > 50 µg/mL | – |
| CC(=O)NC(CCC(N)=O)C(=O)Nc1ccc(-c2ncc(C(=O)N[C@@H](C(=O)NC3C(=O)N4C(C(=O)O)=C(CSc5nnnn5C)CSC34)c3ccccc3)c(O)n2)cc1 (mixture of isomers) [Example 23, N-[2-[4-(N-Acetyl-DL-glutaminylamino)phenyl]-4-hydroxy-5-pyrimidinylcarbonyl]-7-[D-2-amino-2-phenylacetamido]-3-[[1-methyl-1H-tetrazol-5-yl)thio]methyl]-3-cephem-4-carboxylic acid] | 3.1 µg/mL | 0.8 µg/mL | 6.3 µg/mL | 3.1 µg/mL | 12.5 µg/mL | 6.3 µg/mL | 12.5 µg/mL | 6.3 µg/mL | 50 µg/mL | 12.5 µg/mL | 3.1 µg/mL | 50 µg/mL | – |
| CC(=O)N[C@H](C)C(=O)Nc1ccc(-c2ncc(C(=O)N[C@@H](C(=O)N[C@@H]3C(=O)N4C(C(=O)O)=C(COC(C)=O)CS[C@H]34)c3ccccc3)c(O)n2)cc1 [Example 1, N-[2-[4-(N-Acetyl-D-alanylamino)phenyl]-4-hydroxy-5-pyrimidinyl-carbonyl]-7-[D-2-amino-2-phenylacetamido]-3-acetoxymethyl-3-cephem-4-carboxylic acid] | 25 µg/mL (≈ 34.2 µM) | 6.3 µg/mL (≈ 8.61 µM) | 50 µg/mL (≈ 68.3 µM) | 200 µg/mL (≈ 273 µM) | 12.5 µg/mL (≈ 17.1 µM) | 3.1 µg/mL (≈ 4.24 µM) | 3.1 µg/mL (≈ 4.24 µM) | 3.1 µg/mL (≈ 4.24 µM) | 12.5 µg/mL (≈ 17.1 µM) | 3.1 µg/mL (≈ 4.24 µM) | 0.8 µg/mL (≈ 1.09 µM) | 50 µg/mL (≈ 68.3 µM) | – |
| CC(=O)OCC1=C(C(=O)O)N2C(=O)[C@@H](NC(=O)[C@H](NC(=O)c3cnc(-c4ccc(NC(=O)C5CCCN5C(C)=O)cc4)nc3O)c3ccccc3)[C@H]2SC1 (mixture of isomers) [Example 13, N-[2-[4-(N-Acetyl-DL-prolylamino)phenyl]-4-hydroxy-5-pyrimidinylcarbonyl]-7-[D-2-amino-2-phenylacetamido]-3-acetoxy-methyl-3-cephem-4-carboxylic acid] | 50 µg/mL | 12.5 µg/mL | 50 µg/mL | 25 µg/mL | 50 µg/mL | 6.3 µg/mL | 12.5 µg/mL | 12.5 µg/mL | > 50 µg/mL | 6.3 µg/mL | 3.1 µg/mL | 50 µg/mL | – |
| CC(=O)NCCC(=O)Nc1ccc(-c2ncc(C(=O)N[C@@H](C(=O)N[C@@H]3C(=O)N4C(C(=O)O)=C(COC(C)=O)CS[C@H]34)c3ccccc3)c(O)n2)cc1 [Example 3] | 25 µg/mL (≈ 34.2 µM) | 12.5 µg/mL (≈ 17.1 µM) | 50 µg/mL (≈ 68.3 µM) | 12.5 µg/mL (≈ 17.1 µM) | 12.5 µg/mL (≈ 17.1 µM) | 6.3 µg/mL (≈ 8.61 µM) | 12.5 µg/mL (≈ 17.1 µM) | 6.3 µg/mL (≈ 8.61 µM) | < 50 µg/mL | 6.3 µg/mL (≈ 8.61 µM) | 1.6 µg/mL (≈ 2.19 µM) | 50 µg/mL (≈ 68.3 µM) | – |
